Source: ChEMBL document CHEMBL3881522, “Interaction inhibitors of TCF-4 with Beta-catenin” (2004)
The source made the active and inactive calls. The rule behind the calls is not given here.

biological target: TCF4/beta-catenin (Homo sapiens) (UniProt P35222+Q9NQB0); assay: Inhibition of TCF-4 ( 1 to 56 residues) (unknown origin) binding to beta-catenin/armadillo (unknown origin) at 50 uM by ITC assay; format: protein-complex assay

SMILES | inhibition
Cc1ccc(/C=N/N=C2\C(=O)N(c3ccncc3)c3ccccc32)o1 | Active
Cc1ccc(/C=N/Nc2cc(C(=O)NCCc3ccccc3)cc3c2CCc2ccncc2-3)o1 | Active
O=C(Nc1nnc(Br)o1)c1c(O)cc(-c2ccccc2)oc1=O | Active
Cc1ccc(/C=C/c2ccc3[nH]c(-c4ccco4)cc3c2)o1 | Active
Cc1cc(CNC(=O)/C=C2\C(=O)N(c3ccncc3)c3ccccc32)on1 | Active
O=C(c1ccc(Br)o1)N1CCN(C(c2ccccc2)c2ccccc2)CC1 | Active
Cc1cc(/C(=C\c2ccccc2)c2ccc(OCCN3CCCC3)cc2)on1 | Active
Cc1ccc(C(=O)N2CCN(C(c3ccccc3)c3ccccc3)CC2)s1 | Active
O=c1oc(-c2ccccc2)cc(O)c1/C=C/c1nnc(Br)o1 | Active
Cc1ccc(/C=N/n2c(=O)n(-c3ccncc3)c(=O)c3ccccc32)o1 | Active
CS(=O)(=O)N(CCOCCc1ccccc1)c1nc2c([nH]1)CCc1ccccc1-2 | Active
Cc1ccc(/C=N/NC(=O)c2ccccc2Oc2ccccc2)o1 | Active
Cc1ccc(CNC(=O)/C=C2\C(=O)N(c3ccncc3)c3ccccc32)o1 | Active
Cc1nnc(-c2sc3nc(-c4ccc(Cl)cc4)nn3c2C)o1 | Active
O=C(c1ccncc1)N1CCC(=Cc2ccccc2OCc2ccc(Br)o2)CC1 | Active
Cc1ccc(CCc2ccc3[nH]c(-c4cccs4)cc3c2)o1 | Active
Cc1cc(NC(=O)NC(=O)c2nnc(-c3ccccc3)o2)no1 | Active
Cc1cc(NC(=O)c2c(O)cc(Oc3ccccc3)oc2=O)on1 | Active
Cc1cc(-c2onc(C)c2COC(=O)Nc2ccccc2)no1 | Active
Cc1ccc(COc2ccccc2C=C2CCN(S(=O)(=O)c3ccncc3)CC2)o1 | Active

SMILES | inhibition
Nc1n[nH]c(CC2CN(c3ccc(N4CCOCC4)c(F)c3)C(=O)O2)n1 (centres undefined) | Active
CC(=O)N(CCCC(C)c1ccccc1)c1nc2c(s1)CCc1ccccc1-2 (centres undefined) | Active
Cc1ccc(Nc2cccc(-c3ccccc3Oc3ccccc3)c2)o1 | Active
Cc1ccc(/C(=N\NC(=O)c2ccccc2Nc2ccccc2)c2ccccc2)o1 | Active
C/C(=N\NC(=O)COc1ccccc1)c1ccc(C)s1 | Active
Cc1ccc(-c2ccc3ccc(Oc4ccncc4)cc3c2)o1 | Active
Cc1ccc(NC(=O)c2c(O)cc(-c3ccccc3)oc2=O)o1 | Active
Cc1ccc(/C(=N\NC(=O)c2ccccc2Oc2ccccc2)c2ccccn2)o1 | Active
Cc1cc(NC(=O)c2ccc(Oc3ccccc3)cc2)on1 | Active
Oc1nnc(CCCc2ccc(Oc3ccccc3)cc2)o1 | Active
O=C(CCNS(=O)(=O)c1ccccc1)NNS(=O)(=O)Cc1ccc(Cl)s1 | Active
Cc1ccc(CCc2ccc3[nH]c(-c4ccco4)cc3c2)o1 | Active
CS(=O)(=O)N(CCCCOc1ccccc1)c1nc2c(s1)CCc1ccccc1-2 | Active
Nc1n[nH]c(CC2CN(c3ccc(N4CCNCC4)c(Cl)c3)C(=O)N2)n1 (centres undefined) | Active
O=S(=O)(c1ccc(OCc2cnc(Cl)s2)cc1)N1CCOCC1 | Active
C/C(=N\NC(=O)OCc1ccccc1)c1cc(C)cs1 | Active
COc1cccc2c1CCc1sc(N(CCOC(C)CCc3ccccc3)C(C)=O)nc1-2 (centres undefined) | Active
Cc1ccc(/C=N/c2cccc3c(-c4ccncc4)ccnc23)o1 | Active
Cc1ccc(/C(=N\NC(=O)c2ccccc2Oc2ccccc2)c2ccccc2)s1 | Active
